# Assay results as given in patent US20050255118A1, “Methods and composition for treating tumors and metastatic disease” (priority 2004, published 2005).
# Like-named read-outs stand apart in the source and are kept apart here.
# How the values were obtained:
# [1] = test system: human MOLT-4 acute lymphoblastic leukemia xenografts; assay: Growth of subcutaneously-implanted human MOLT-4 xenografts in SCID mice; type: in vivo, female SCID mice; details: for Effect on growth of SC-implanted MOLT-4 xenografts (primary tumor): treatment after establishment of tumor
# Experimental: Mice were fed sterilizable rodent diet (Harlan-Teklad TD8656). Cages were changed twice weekly.
# Thirty-to-forty milligram fragments of MOLT-4 human leukemia were implanted in mice near the right auxiliary area using a 12-gauge trocar needle and allowed to grow. The day of tumor fragment implantation was Day 0 of the experiment. Tumors were allowed to reach 75-144 mg in weight (75-144 mm3 in size) before the start of the treatments. A sufficient number of mice were implanted so that tumors in a weight range as narrow as possible were selected for the trial on the day of treatment initiation (Day 14 after tumor implantation). Those animals selected with tumors in the proper size range were randomized into treatment groups. The mean tumor weights on the first day of treatment were ranging from 84 or 96 mg; median tumor weights were 75 or 88 mg on Day 14.
# Natalizumab (a 20-mg/mL solution, Gensia Sicor Pharmaceuticals Inc., Lot Nos. F23014 and G23004) and a diluent (Placebo for Tysabri®, Gensia Sicor Pharmaceuticals Inc., Lot No. F85002) were received from Biogen Idec Inc. and were stored at +2-8° C. upon receipt. Vials with a 0.97-mg/mL solution of human immunoglobulin (IgG4) were supplied by Sigma-Aldrich (St. Louis, Mo., Lot No. 122K9159) and were stored at −84° C. upon receipt. A clinical formulation of Taxol® (placlitaxel) (6.0 mg/mL in 50% cremophor-EL/50% ethanol, Bristol-Myers Squibb Company, Princeton, N.J.; Lot No. 2L57296) was purchased and refrigerated upon receipt. Saline (Saline Solution 0.9%, for animal use only) was purchased from Phoenix Pharmaceutical, Inc. (St. Joseph, Mo., Lot Nos. 262053F, 206205F, 208281F) and stored at room temperature. A new bottle of saline was used on each day of formulation.
# On Day 14, a 20-mg/mL solution of natalizumab was diluted with Placebo for Tysabri® to 1.0 mg/mL. On subsequent injection days, a 0.5-mg/mL solution of natalizumab was formulated by diluting a 20-mg/mL stock solution with Placebo for Tysabri®. Care was taken not to shake the vials with natalizumab; the vials were inverted to mix. A new vial of natalizumab and Placebo for Tysabri® were used on each day of formulation. On Day 14, a supplied 0.97-mg/mL stock solution of IgG4 was thawed and injected into mice. On subsequent injection days, a 0.5-mg/mL solution of IgG4 was prepared by diluting a 0.97-mg/mL stock solution with Saline Solution 0.9%. A new vial with IgG4 was used on each day of formulation. An aliquot of a commercially formulated 6-mg/mL solution of Taxol® in 50% cremophor-EL/50% ethanol was diluted on each day of injection with Saline Solution 0.9% to make a 1.5-mg/mL solution in 12.5% cremophor-EL/12.5% ethanol/75% saline. All dosing solutions were injected within 2 to 3 hours of formulation.
# Primary tumors of animals in Groups 5 and 6 were surgically excised on Day 28, one day after the median tumor weight in Group S reached 466 mg. Administration of anesthesia and surgery/post-surgery recovery procedures were conducted following approved standard laboratory methods. Briefly, each animal was anesthetized and the incision site was prepared with an antiseptic solution. An incision along the periphery of one side of the tumor (no more than 3-4 mm longer than the diameter of the tumor) was made, the skin was reflected and the tumor was everted through the incision. Tumor was dissected away from the skin and muscle. The incision was closed with a 4.0-mm wound clip. Each excised tumor was cut in half, with one half of the tumor frozen in O.C.T. compound and the second half of the tumor preserved in 10% buffered formalin. The site of the resection was monitored for tumor re-growth twice a week and when a new solid tumor was formed, its dimensions were recorded.
# Animals No. 1-10 in Groups 1-4 were euthanized on Day 47 after tumor implantation (16 May 2003); Animals No. 11-20 in Groups 1-4 were euthanized on Day 48 (17 May 2003). […]
# [2] = test system: human acute lymphoblastic leukemia xenografts; assay: Necropsy and histopathologic evaluation of xenograft-bearing SCID mice; design: species or system female SCID mice; details: mouse, in vivo
# Experimental: Animals No. 1-10 in Groups 1-4 were euthanized on Day 47 after tumor implantation (16 May 2003); Animals No. 11-20 in Groups 1-4 were euthanized on Day 48 (17 May 2003). All surviving animals in Groups 5 and 6 (except for Animal No. 12 in Group 5 and Animal No. 8 in Group 6, for explanations see below) were euthanized on Day 80 after tumor implantation […]. Animal No. 12 in Group 5 was sacrificed on Day 73 due to excessive tumor weight (>4,000 mg). Animal No. 8 in Group 6 was sacrificed on Day 73 due to tumor ulceration. Five animals in Group 7 were euthanized on Days 14, 21, 28, 35, and ten animals were euthanized on Day 38. Carcasses of all animals alive on Days 47, 48, and 80 were submitted to the Safety Assessment Department of Southern Research Institute for necropsy followed by complete histopathological evaluation. Animals in Group 7 were excluded from necropsy and complete histopathological evaluation. For the animals in Groups 1-6, tumor implantation (subcutaneous) took place on Day 0. Treatment was initiated on Day 14, and treatment was terminated on Day 45. Primary tumor excision occurred on Day 28 post-implantation in Groups 5 and 6. The animals were sacrificed on Day 80. Animals in the non-excision group were sacrificed at days 47-48.
# Each tumor weighing more than 100 mg was cut in half and one half of the each tumor was frozen in O.C.T. compound using a dry ice/ethanol slush, and stored at −84° C. Tumors weighing less than 100 mg (tumors of Animals No. 1, 3, 7, 9, 11, 12, 14-18, and 20 in Group 4) were frozen in O.C.T. compound in toto. Tumor of Animals No. 2, 4, 5, 6, 8, 13, and 19 in Group 4, which weighed less than 100 mg, were preserved in 10% buffered formalin in toto. After the completion of the experiment all tumor samples frozen in O.C.T. compound (a total of 145 tumor samples) were shipped to Sierra Biomedical, Division of Charles River Laboratories, to be examined by immunohistochemistry to verify that MOLT-4 was expressing VLA-4 in vivo and thus was a valid tumor model for this study. […]
# [3] = mouse, in vivo
# Source text: (§4) In-life experimental work commenced on Day 0 and was terminated on Day 80. Five-to-six-weeks-old, female SCID mice were purchased from Taconic Farms, Inc. (Germantown, N.Y.) and acclimated in the laboratories one week prior to experimentation. The animals were housed in a pathogen-free barrier facility in micro-isolator cages, with five animals per cage in a 12-hour light/dark cycle. The animals received filtered Birmingham municipal water and sterile rodent food ad libitum. Mice were fed sterilizable rodent diet (Harlan-Teklad TD8656). Cages were changed twice weekly. The animals were observed daily and clinical signs were noted.
# (§5) Animals were randomly divided into six groups of 20 animals each and one group of 30 animals. Two groups (Groups 1 and 5) were treated with Saline Solution 0.9% (saline). Animals in Groups 2, 6, and 7 were treated with natalizumab. Animals in Group 3 were treated with IgG4 (isotype control). Animals in Group 4 were treated with Taxol® (positive control). Treatments with saline, natalizumab, and IgG4 (Groups 1, 2, 3, 5, and 6) were administered IP on Days 14, 17, 21, 24, 28, 31, 35, 38, 42, and 45 (Q3D×2 for five weeks, Friday-Monday schedule). Treatment with natalizumab in Group 7 (a group of 30 mice) was administered on Days 14, 17, 21, 24, 28, 31, 35, and 38 (Q3D×2 for four weeks). On Day 14 natalizumab was administered at a dosage of 10 mg/kg, followed by further treatments with a dosage of 5 mg/kg/dose. […]
# (§6) The animals were weighed and the subcutaneous (SC) tumors were measured on the days when treatments were administered starting on Day 14 with an exception of two measurements which were done one day before the injection (on Days 24 and 41). […]
# (§7) The number of non-specific deaths, number of partial and complete tumor regressions, number of tumor-free survivors, and the individual animal's time to reach the evaluation size (time to reach four tumor mass doublings) were determined. […] Mean body weights and standard deviations were calculated for each group on each day of data collection (values are presented in Tables 8-9 through 8-15).
# AS283 cell line = assay: 3H-thymidine incorporation (tritiated thymidine uptake) proliferation assay, AS283; type: cell-based; details: 1, 2, 3, 4 and 5 days of exposure, eight concentrations (0.001-100 mg/mL)
# Experimental: (§1) In order to assess the potential of natalizumab to induce or inhibit proliferation of transformed cells and clonal expansion possibly leading to neoplasia, experiments were performed to determine the ability of natalizumab to stimulate growth of malignant cells expressing the receptor in vitro, and studies were conducted in animal tumor models.
# (§2) The evaluation of positive or negative effects on proliferation of the tumor cell lines was performed using 3H-thymidine incorporation assays. Evaluation of the inhibition or potentiation of human tumor cell growth and/or metastasis was determined using a tumor xenograft nude/SCID mouse model. Thirty-two tumor cell lines were screened. Of the thirty-two tumor cell lines, twelve were colorectal carcinoma, colorectal adenocarcinoma, colon adenocarcinoma, or colon carcinoma cell lines; seven were melanomas or amelanotic melanomas; six were urinary bladder transitional cell carcinomas or urinary bladder carcinomas; three were leukemias; two were lymphomas; and two were prostate carcinomas.
# (§3) An adhesion assay for VCAM-1 binding was also performed. Seven of the eleven cell lines evaluated were positive. […] AS283, HT-29, MOLT-4, and UM-UC-3 cell lines were treated with Tysabri® (natalizumab). Tritiated thymidine uptake was measured.
# HT-29 cell line = assay: 3H-thymidine incorporation (tritiated thymidine uptake) proliferation assay, HT-29; type: cell-based; details: 1, 2, 3, 4 and 5 days of exposure, eight concentrations (0.001-100 mg/mL)
# Experimental: as §1, §2, §3
# MOLT-4 cell line = assay: 3H-thymidine incorporation (tritiated thymidine uptake) proliferation assay, MOLT-4; type: cell-based, human; details: 1, 2, 3, 4 and 5 days of exposure, eight concentrations (0.001-100 mg/mL)
# Experimental: as §1, §2, §3
# UM-UC-3 cell line = assay: 3H-thymidine incorporation (tritiated thymidine uptake) proliferation assay, UM-UC-3; type: cell-based; details: 1, 2, 3, 4 and 5 days of exposure, eight concentrations (0.001-100 mg/mL)
# Experimental: as §1, §2, §3
# [4] = test system: tumor cell lines (nine evaluated); assay: Preliminary cell proliferation assay on nine tumor cell lines; type: cell-based; details: all nine of the nine cell lines evaluated
# Experimental: as §2, §3
# [5] = test system: human MOLT-4 acute lymphoblastic leukemia xenografts; assay: Growth of subcutaneously-implanted human MOLT-4 xenografts in SCID mice; type: in vivo, female SCID mice; details: treatment initiated Day -7
# [6] = Tolerability (deaths, body weight) in MOLT-4 xenograft-bearing SCID mice
# Source text: as §4, §5, §6, §7
molecule,measurement,setting,value
"CC(=O)O[C@H]1C(=O)[C@@]2(C)[C@H]([C@H](OC(=O)c3ccccc3)[C@]3(O)C[C@H](OC(=O)[C@H](O)[C@@H](NC(=O)c4ccccc4)c4ccccc4)C(C)=C1C3(C)C)[C@]1(OC(C)=O)CO[C@@H]1C[C@@H]2O [Taxol, placlitaxel, reference compound]",Measurable tumors that doubled their mass once over the course of the experiment,[1]; no excision (Group 4),three out of eight
same,Animals with no measurable tumor at termination of the experiment,"[1]; no excision, 15 mg/kg/dose IV Q1Dx5 from Day 14",Twelve out of twenty
same,Effect on growth of SC-implanted MOLT-4 xenografts (primary tumor),[1]; no excision,very effective in the inhibition
same,"Gross and microscopic lesions, relation to treatment",[2],spontaneous or incidental and unrelated
same,Tolerability of administration,[3],well tolerated without deaths or sustained body weight loss
"natalizumab: a humanized antibody against VLA-4 as described in U.S. Pat. Nos. 5,840,299 and 6,033,665",Tritiated thymidine uptake: cytotoxic or proliferative effect,AS283 cell line,no evidence of a cytotoxic or proliferative effect
same,Tritiated thymidine uptake: cytotoxic or proliferative effect,HT-29 cell line,no evidence of a cytotoxic or proliferative effect
same,Tritiated thymidine uptake: cytotoxic or proliferative effect,MOLT-4 cell line,no evidence of a cytotoxic or proliferative effect
same,Tritiated thymidine uptake: cytotoxic or proliferative effect,UM-UC-3 cell line,no evidence of a cytotoxic or proliferative effect
same,Preliminary cell proliferation assay: cytotoxic or proliferative effect,[4],no cytotoxic or proliferative effect
same,Median tumor weight,"[1]; Day 47, treatment started Day 14 on established tumor, no excision (Groups 2-4)",1240 mg
same,Median tumor weight (re-grown tumor),"[1]; Day 80, primary tumor excised Day 28 (Group 6)",1006 mg
same,Animals staying tumor-free on day of study termination,"[1]; Group 6, Day 80",two
same,Animals whose tumor re-grew at the site of the primary tumor following excision,"[1]; Group 6, excision Day 28",seventeen out of nineteen
same,Effect on re-growth of tumor at the site of excision of the primary tumor,"[1]; Group 6 vs Group 5, excision Day 28",re-grew at a slower rate
same,Tumors growing / animals with tumor at termination of the experiment,[1]; no excision (Groups 2 and 3),All twenty tumors grew
same,Time for median tumor to reach four tumor mass doublings,"[1]; primary tumor excised Day 28 (Group 6), not reached",> 66.0 days
same,Effect on growth of SC-implanted MOLT-4 xenografts (primary tumor),[1]; no excision,not inhibited
same,Time for median tumor to reach four tumor mass doublings,"[1]; treatment started Day 14 on established tumor, no excision (Groups 2-4)",33.5 days
same,Exacerbation of growth or metastasis of the xenografts (histopathology),[2],no evidence of exacerbation of growth or metastasis
same,"Gross and microscopic lesions, relation to treatment",[2],spontaneous or incidental and unrelated
same,"Effect on tumor growth, treatment initiated prior to tumor implantation",[5],significant decrease in tumor growth
same,Effect on animal health (body weights over the treatment period),"[6]; mouse, in vivo",did not adversely affect animal health
same,Tolerability of administration,"[6]; non-excision groups, natalizumab and IgG4 IP Days 14-45, Taxol IV Q1Dx5",well tolerated without deaths
